In patent publication US20250034159A1, “INHIBITORS OF EPIDERMAL GROWTH FACTOR RECEPTOR” (ORIC Pharmaceuticals, Inc., priority 2021, published 2025) one finds IC50 data, which are given here for 16 compounds.

Molecules are shown by their SMILES. Like-named read-outs stand apart in the source and are kept apart here.

Experiment [1] addresses recombinant human EGFR exon 19 deletion/C797S double mutant protein (Homo sapiens (Human), UniProt P00533, C797S/DEL746-750). In words: Biological Activity Assay C: biochemical assay against EGFR exon 19 deletion/C797S protein (EGFR d19/CS). The method, boiled down:
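Compounds were tested as 16-point serial dilutions (final DMSO 2.5%) with a Phosphosens peptide sensor/ATP working solution (40 uM/4 mM). The signal was read kinetically over 90 cycles at 120 s intervals. IC50s came from 4-parameter fits of per-well slopes.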

A further experiment deals with Ba/F3_EGFR WT cells. In words: Biological Activity Assay D: BaF3 cell proliferation assay, EGFR wild-type (BaF3 WT). Format: cell-based. Particulars: Ba/F3 EGFR, read-out: BaF3 WT IC50.
Another experiment has as its system BaF3_EGFR LR/CS cells. Kind of experiment: Biological Activity Assay D: BaF3 cell proliferation assay, EGFR L858R/C797S mutant (BaF3 LR/CS). The class given is cell-based. Particulars: Ba/F3 EGFR, read-out: BaF3 LR/CS IC50.
The next experiment has as its system BaF3_EGFR d19/CS cells. In words: Biological Activity Assay D: BaF3 cell proliferation assay, EGFR exon 19 deletion/C797S (BaF3 d19/CS). Particulars: Ba/F3 EGFR, read-out: BaF3 d19/CS IC50. Format: cell-based.
Setting [2] is: Ba/F3_EGFR WT cells, ~72 hours, CellTiter-Glo.
Where [3] appears, read: BaF3_EGFR LR/CS cells, ~72 hours, CellTiter-Glo.
[4] abbreviates: BaF3_EGFR d19/CS cells, ~72 hours, CellTiter-Glo.

Sequence of recombinant human EGFR exon 19 deletion/C797S double mutant protein (P00533 other isoform, or with tags, fused parts or gaps C797S/del 1-668/del 746-750 limits assumed): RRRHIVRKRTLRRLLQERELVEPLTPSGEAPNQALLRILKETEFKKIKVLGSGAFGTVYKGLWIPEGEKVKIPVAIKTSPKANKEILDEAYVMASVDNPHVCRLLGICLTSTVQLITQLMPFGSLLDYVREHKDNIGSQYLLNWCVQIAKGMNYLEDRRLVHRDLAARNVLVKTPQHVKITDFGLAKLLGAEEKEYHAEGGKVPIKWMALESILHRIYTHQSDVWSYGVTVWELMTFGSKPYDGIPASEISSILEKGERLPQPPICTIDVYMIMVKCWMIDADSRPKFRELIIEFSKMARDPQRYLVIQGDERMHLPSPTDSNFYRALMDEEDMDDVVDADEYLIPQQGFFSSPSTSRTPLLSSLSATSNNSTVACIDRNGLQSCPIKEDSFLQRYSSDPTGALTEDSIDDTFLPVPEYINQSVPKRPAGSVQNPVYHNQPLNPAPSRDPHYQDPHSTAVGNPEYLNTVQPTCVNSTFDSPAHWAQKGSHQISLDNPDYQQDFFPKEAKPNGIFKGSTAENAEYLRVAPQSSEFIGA

`O=S1(=O)CC(n2cc(-c3ncnc4oc(-c5ccsn5)cc34)c(-c3ccc(F)cc3)n2)C1` [Example 235, 3-{3-(4-fluorophenyl)-4-[6-(1,2-thiazol-3-yl)furo[2,3-d]pyrimidin-4-yl]-1H-pyrazol-1-yl}-1λ6-thietane-1,1-dione]: the IC50 in experiment [1] stood at 0.24 nM; in the experiment on Ba/F3_EGFR WT cells (setting [2]), 837 nM; in the experiment on BaF3_EGFR LR/CS cells (setting [3]), 41.8 nM; with BaF3_EGFR d19/CS cells (setting [4]) it was 41.3 nM.
The like results for `Cc1nc(-c2cc3c(-c4cn(C5CS(=O)(=O)C5)nc4-c4ccc(F)cc4)ncnc3o2)cs1` [Example 236, 3-{3-(4-fluorophenyl)-4-[6-(2-methyl-1,3-thiazol-4-yl)furo[2,3-d]pyrimidin-4-yl]-1H-pyrazol-1-yl}-16-thietane-1,1-dione] were, in that order, 0.16 nM, 924 nM, 11.2 nM and 17.1 nM.
Turning to `CNC(=O)c1cncc(-c2cc3c(-c4cn(C5CS(=O)(=O)C5)nc4-c4ccc(F)cc4)ncnc3o2)c1` [Example 239, 5-{4-[1-(1,1-dioxo-1λ6-thietan-3-yl)-3-(4-fluorophenyl)-1H-pyrazol-4-yl]furo[2,3-d]pyrimidin-6-yl}-N-methylpyridine-3-carboxamide], the IC50 in experiment [1] is 1.73 nM; in the experiment on Ba/F3_EGFR WT cells (setting [2]) it was 12400 nM; with BaF3_EGFR LR/CS cells (setting [3]), 1500 nM; with BaF3_EGFR d19/CS cells (setting [4]), 1280 nM.
In the same order, the values of `Cc1ccc(-c2cc3c(-c4cn(C5CS(=O)(=O)C5)nc4-c4ccc(F)cc4)ncnc3o2)c(C)n1` [Example 240, 3-{4-[6-(2,6-dimethylpyridin-3-yl)furo[2,3-d]pyrimidin-4-yl]-3-(4-fluorophenyl)-1H-pyrazol-1-yl}-16-thietane-1,1-dione] are 0.34 nM, 7560 nM, 57.9 nM and 66.4 nM.
In the case of `Cc1cccnc1-c1cc2c(-c3cn(C4CS(=O)(=O)C4)nc3-c3ccc(F)cc3)ncnc2o1` [Example 241, 3-{3-(4-fluorophenyl)-4-[6-(3-methylpyridin-2-yl)furo[2,3-d]pyrimidin-4-yl]-1H-pyrazol-1-yl}-1λ6-thietane-1,1-dione], the IC50 turned out to be 1.2 nM in experiment [1], 1520 nM in the experiment on Ba/F3_EGFR WT cells (setting [2]), 189 nM in the experiment on BaF3_EGFR LR/CS cells (setting [3]) and 131 nM in the experiment with BaF3_EGFR d19/CS cells (setting [4]).
In the same order, the values of `Cc1nn(C)cc1-c1cc2c(-c3cn(C4CS(=O)(=O)C4)nc3-c3ccc(F)cc3)ncnc2o1` [Example 242, 3-{4-[6-(1,3-dimethyl-1H-pyrazol-4-yl)furo[2,3-d]pyrimidin-4-yl]-3-(4-fluorophenyl)-1H-pyrazol-1-yl}-16-thietane-1,1-dione] are 0.18 nM, 533 nM, 8.34 nM and 10.8 nM.
In the case of `Cc1cc(-c2cc3c(-c4cn(C5CS(=O)(=O)C5)nc4-c4ccc(F)cc4)ncnc3o2)n(C)n1` [Example 243, 3-{4-[6-(1,3-dimethyl-1H-pyrazol-5-yl)furo[2,3-d]pyrimidin-4-yl]-3-(4-fluorophenyl)-1H-pyrazol-1-yl}-16-thietane-1,1-dione], the IC50 was determined as 0.37 nM in experiment [1], 1200 nM in the experiment with Ba/F3_EGFR WT cells (setting [2]), 93 nM with BaF3_EGFR LR/CS cells (setting [3]) and 87.8 nM in the experiment with BaF3_EGFR d19/CS cells (setting [4]).
In the same order, the values of `Cn1cc(-c2cc3c(-c4cn(C5CS(=O)(=O)C5)nc4-c4ccc(F)cc4)ncnc3o2)nn1` [Example 244, 3-{3-(4-fluorophenyl)-4-[6-(1-methyl-1H-1,2,3-triazol-4-yl)furo[2,3-d]pyrimidin-4-yl]-1H-pyrazol-1-yl}-16-thietane-1,1-dione] are 0.55 nM, 1040 nM, 91.7 nM and 96.2 nM.
In the same order, the values of `Cc1ccccc1-c1cc2c(-c3cn(C4CS(=O)(=O)C4)nc3-c3ccc(F)cc3)ncnc2o1` [Example 245, 3-{3-(4-fluorophenyl)-4-[6-(2-methylphenyl)furo[2,3-d]pyrimidin-4-yl]-1H-pyrazol-1-yl}-16-thietane-1,1-dione] are 0.31 nM, 3210 nM, 82.1 nM and 69.9 nM.
The like results for `O=S1(=O)CC(n2cc(-c3ncnc4oc(-c5nccs5)cc34)c(-c3ccc(F)cc3)n2)C1` [Example 248, 3-{3-(4-fluorophenyl)-4-[6-(1,3-thiazol-2-yl)furo[2,3-d]pyrimidin-4-yl]-1H-pyrazol-1-yl}-16-thietane-1,1-dione] were, in that order, 0.42 nM, 2550 nM, 100 nM and 92.7 nM.
Turning to `Cc1ncccc1-c1cc2c(-c3cn(C4CS(=O)(=O)C4)nc3-c3ccc(F)cc3)ncnc2o1` [Example 249, 3-{3-(4-fluorophenyl)-4-[6-(2-methylpyridin-3-yl)furo[2,3-d]pyrimidin-4-yl]-1H-pyrazol-1-yl}-1λ6-thietane-1,1-dione], the IC50 came out at 0.25 nM in experiment [1], 4510 nM in the experiment on Ba/F3_EGFR WT cells (setting [2]), 103 nM with BaF3_EGFR LR/CS cells (setting [3]) and 104 nM with BaF3_EGFR d19/CS cells (setting [4]).
In the same order, the values of `Cn1cc(-c2cc3c(-c4cn(C5CS(=O)(=O)C5)nc4-c4ccc(F)cc4)ncnc3o2)cn1` [Example 250, 3-{3-(4-fluorophenyl)-4-[6-(1-methyl-1H-pyrazol-4-yl)furo[2,3-d]pyrimidin-4-yl]-1H-pyrazol-1-yl}-16-thietane-1,1-dione] are 0.05 nM, 696 nM, 3.54 nM and 9.26 nM.
In the same order, the values of `Cc1nn(C)cc1-c1cc2c(-c3cn(CC(C)(C)O)nc3-c3ccc(F)cc3)ncnc2o1` [Example 251, 1-{4-[6-(1,3-dimethyl-1H-pyrazol-4-yl)furo[2,3-d]pyrimidin-4-yl]-3-(4-fluorophenyl)-1H-pyrazol-1-yl}-2-methylpropan-2-ol] are 0.2 nM, 745 nM, 8.08 nM and 12.8 nM.
The like results for `Cc1nn(C)c(C)c1-c1cc2c(-c3cn(CC(C)(C)O)nc3-c3ccc(F)cc3)ncnc2o1` [Example 252, 1-{3-(4-fluorophenyl)-4-[6-(1,3,5-trimethyl-1H-pyrazol-4-yl)furo[2,3-d]pyrimidin-4-yl]-1H-pyrazol-1-yl}-2-methylpropan-2-ol] were, in that order, 0.09 nM, 630 nM, 8.87 nM and 21.9 nM.
On to `Cc1cccc(-c2cc3c(-c4cn(C5CS(=O)(=O)C5)nc4-c4ccc(F)cc4)ncnc3o2)n1` [Example 253, 3-{3-(4-fluorophenyl)-4-[6-(6-methylpyridin-2-yl)furo[2,3-d]pyrimidin-4-yl]-1H-pyrazol-1-yl}-16-thietane-1,1-dione], for which the IC50 stood at 0.2 nM in experiment [1], 7740 nM with Ba/F3_EGFR WT cells (72 h), 51.6 nM in the experiment on BaF3_EGFR LR/CS cells (72 h) and 87.7 nM in the experiment with BaF3_EGFR d19/CS cells (72 h).
Consider `Cn1cnc(-c2cc3c(-c4cn(CC(C)(C)O)nc4-c4ccc(F)cc4)ncnc3o2)c1` [Example 254, 1-{3-(4-fluorophenyl)-4-[6-(1-methyl-1H-imidazol-4-yl)furo[2,3-d]pyrimidin-4-yl]-1H-pyrazol-1-yl}-2-methylpropan-2-ol], for which the IC50 in experiment [1] turned out to be 0.11 nM; with Ba/F3_EGFR WT cells (setting [2]), 442 nM; with BaF3_EGFR LR/CS cells (setting [3]) it was 3.05 nM; with BaF3_EGFR d19/CS cells (setting [4]) it was 5.01 nM.
